Here are results for 2 molecules from US20260167629A1, “NOVEL INDAZOLE DERIVATIVE OR PHARMACEUTICALLY ACCEPTABLE SALT THEREOF, AND USE THEREOF” (KOREA UNIVERSITY RESEARCH AND BUSINESS FOUNDATION, priority 2022, published 2026).

The subject of one data set is JIMT-1 cell line. As to the kind of experiment: MTS cell viability assay in JIMT-1 cell line. In kind it is cell-based. As to conditions: Homo sapiens, JIMT-1, 72 hours. On the procedure: The control group was treated with DMSO as an untreated group (0 μM) of the indazole derivative of the present disclosure.
(§1) Specifically, cells were attached to 96 well plates for 24 hours, and then treated with the indazole derivatives for 72 hours. Thereafter, the cells were chromogenized with MTS for 4 hours, and the absorbance was measured at 490 nm using a Spectramax Plus384 microplate analyzer.
(§2) HER2 positive breast cancer (HER2+BC) cell lines, BT474 (cell seeding numbers: 2.4 (BT474)×10^4 cells/wells (confluency≥50%)) sensitive to trastuzumab and JIMT-1 (cell seeding numbers: 1.0 (JIMT-1)×10^4 cells/wells (confluency>30%)) resistant to trastuzumab were used in the experiment.
(§3) In this case, the cell lines were treated with the benzopyran derivative at a concentration of 10 μM for 72 hours and the cell lines were treated with the indazole derivative at a concentration of 10 μM for 72 hours, and then the cell viability was measured.

The subject of a further data set is BT474 cell line. The experiment in a line: MTS cell viability assay in BT474 cell line. In kind it is cell-based. As to conditions: Homo sapiens, BT-474, BT474, 72 hours. The protocol: as §1, §2, §3
Data set [1] deals with cleaved caspase-3, cleaved caspase-7, PARP in BT474 cell line. The experiment in a line: Western blotting of apoptosis-related proteins, BT474. In kind it is cell-based. The settings on record: BT474, 10 μM, 72 hours; for amounts of cleaved caspase-3 and cleaved caspase-7: compared to the control group. On the procedure:
(§4) To investigate the mechanism of cell death by compound 18c (formula 1-16) and compound 11k (formula 1-7), the activation of apoptosis-related factor caspase family members was determined through western blotting.
(§5) To perform western blotting, BT-474 and JIMT-1 cell lines were treated with control (DMSO), compound 18c, and compound 11k at concentrations of 10 μM each for 72 hours, and then lysed in lysis buffer (30 mM NaCl, 0.5% Triton X-100, 50 mM Tris-HCl; pH 7.4) containing phosphatase and protease inhibitors. The proteins present in the supernatant were harvested. The protein concentration was measured using a Bradford protein assay kit, and 30 μg of protein was taken equally from each experimental group. These proteins were electrophoresed on SDS-Polyacrylamide gels (8-15%), and electrically transferred to a nitrocellulose membrane. The membrane was reacted with primary antibodies [pro PARP (1:1000), cleaved PARP (1:2000), cleaved caspase-3 (1:1000), cleaved caspase-7 (1:1000), β-actin (1:5000)] diluted in 5% bovine serum albumin (BSA) at 4° C. for 24 hours, followed by a secondary antibody, horseradish peroxidase (HRP)-conjugated rabbit IgG (1:3000) for 2 hours at room temperature. The signal intensity of the above proteins was checked by color development using an Enhanced Chemiluminescence Kit and x-ray film.

Data set [2] has as its system cleaved caspase-3, cleaved caspase-7, PARP in JIMT-1 cell line. The experiment in a line: Western blotting of apoptosis-related proteins, JIMT-1. In kind it is cell-based. The settings on record: JIMT-1, 10 μM, 72 hours; for amounts of cleaved caspase-3 and cleaved caspase-7: compared to the control group. The protocol:
as §4, §5

For data set [3], the system named is Hsp90 clients in JIMT-1 cell line. As to the kind of experiment: Western blotting of Hsp90 clients, JIMT-1. As to conditions: JIMT-1, 10 μM, 72 hours. In kind it is cell-based. The protocol: as §5
Western blotting was used to investigate whether Hsp90 inhibitors, compound 18c (formula 1-16) and compound 11k (formula 1-7), could downregulate the expression and activity (phosphorylation) of HER2 and HER3, which are representative clients of Hsp90, in BT474 and JIMT-1 cell lines. The expression of Akt, MEK, ERK, Bcl-2, Cyclin D1, and Survivin, which are key factors for cell survival as Hsp90 clients, was also investigated. The western blotting was performed by the method that was used in Experimental Example 2.3.
The BT474 and JIMT-1 cell lines were treated with compound 18c and compound 11k at a concentration of 10 μM for 72 hours.

Data set [4] can be described thus: Toxicity in JIMT-1 xenograft mice (body weight, H&E of liver, kidney, lung, AST, ALT, BUN). In kind it is in vivo, Balb/c nude mice. The settings on record: intraperitoneally, 30 mg/kg compound 18c or 20 mg/kg compound 11k. The protocol:
6-week-old mice (Balb/c nude mice) were purchased and raised in an environment where they could freely access food and water. The mice were acclimated for more than 7 days, and then were transplanted with tumor cells. Tumor cells were injected subcutaneously into the mammary gland tissue of JIMT-1 breast cancer cells at a density of 3×10^6 cells/mL per individual, and when the tumor reached a size of 50 to 100 mm^3, the indazole derivative of the present disclosure was administered intraperitoneally, and the tumor growth was measured. The experimental groups were treated with either 30 mg/kg of compound 18c (formula 1-16) or 20 mg/kg of compound 11k (formula 1-7), and tumor volume, tumor weight, body weight, and the like were measured every 3 to 4 days from the time of administration until the end of the study.
To determine whether the treatment with the indazole derivatives of the present disclosure would affect normal organs, a toxicity analysis was performed.
The mouse model was sacrificed. The liver, kidney, and lung tissues were fixed in 4% paraformaldehyde for 24 hours, washed in PBS buffer, and then embedded in paraffin. Tissue samples were sectioned and stained with H&E (hematoxylin & eosin). […]

The molecule `COc1c(C(=O)Nc2ccc3c(C)nn(CCC4CCN(C)CC4)c3c2)ccc2c1C=CC(C)(C)O2` [compound 11k, 5-Methoxy-2,2-dimethyl-N-(3-methyl-1-(2-(1-methylpiperidin-4-yl)ethyl)-1H-indazol-6-yl)-2H-chromene-6-carboxamide] had an IC50 with JIMT-1 cell line of 4.06 µM. The molecule further yielded an IC50 with BT474 cell line of 8.48 µM. In addition, in data set [1], the “cleaved-PARP (89 kDa)” value is “increase”; the “amounts of cleaved caspase-3 and cleaved caspase-7” value (“amounts” for short) is “significantly increased”. For the same molecule, in data set [2], the “cleaved-PARP (89 kDa)” value was “increase”; the “amounts” value is given as “significantly increased”. In data set [3], the “expression of HER2 and HER3” value is “decreased”; the “expression of activated forms phospho-HER2 and phospho-HER3” value is “significantly reduced”; the “expression of cell proliferation factors Akt, MEK, ERK, Bcl-2, Cyclin D1, and Survivin” value is “inhibited the expression”. Besides, in data set [4], the body weight entry is on record as “maintained”.
In the data set with JIMT-1 cell line, `COCCn1nc(NC(=O)c2ccc3c(c2OC)C=CC(C)(C)O3)c2ccccc21` [compound 18c, 5-Methoxy-N-(1-(2-methoxyethyl)-1H-indazol-3-yl)-2,2-dimethyl-2H-chromene-6-carboxamide] had an IC50 of 4.6 µM. This molecule had an IC50 with BT474 cell line of 4.98 µM. In addition, in data set [1], the “cleaved-PARP (89 kDa)” value is recorded as “increase”; the “amounts” value is “significantly increased”. Further, in data set [2], the “cleaved-PARP (89 kDa)” value is given as “increase”; the “amounts” value is on record as “significantly increased”. For the same molecule, in data set [3], the “expression of HER2 and HER3” value was “decreased”; the “expression of activated forms phospho-HER2 and phospho-HER3” value is listed as “significantly reduced”; the “expression of cell proliferation factors Akt, MEK, ERK, Bcl-2, Cyclin D1, and Survivin” value is “inhibited the expression”. In addition, the body weight result in data set [4] was “maintained”.
